Reference: PubChem BioAssay (NCI)
Where “and” joins values, the source holds several entries; their conditions need not be identical. Equal values may be shown once.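 Method: 48-hour compound exposure of cells in 96-well plates, five concentrations, linear interpolation of endpoints. At the GI50, growth is halved. TGI is the concentration that stops growth completely.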

How the values were obtained:
Assay in all cases: inhibition of tumour cell growth, NCI panel, 48 h; in the data active = GI50 below about 0.43 µM; inactive = the rest
OVCAR-5 ovarian = system: OVCAR-5 ovarian
RXF 393 renal = system: RXF 393 renal
COLO 205 colon = system: COLO 205 colon
MCF7 breast = system: MCF7 breast
MDA-N = system: MDA-N
IGROV1 ovarian = system: IGROV1 ovarian
SK-MEL-2 melanoma = system: SK-MEL-2 melanoma
EKVX NSCLC = system: EKVX NSCLC
MDA-MB-435 = system: MDA-MB-435
NCI/ADR-RES ovarian = system: NCI/ADR-RES ovarian
HS 578T breast = system: HS 578T breast
MDA-MB-231 breast = system: MDA-MB-231 breast
HL-60(TB) leukemia = system: HL-60(TB) leukemia
SK-MEL-5 melanoma = system: SK-MEL-5 melanoma
OVCAR-4 ovarian = system: OVCAR-4 ovarian
SK-MEL-28 melanoma = system: SK-MEL-28 melanoma
HOP-92 NSCLC = system: HOP-92 NSCLC
SK-OV-3 ovarian = system: SK-OV-3 ovarian
OVCAR-3 ovarian = system: OVCAR-3 ovarian
NCI-H460 lung = system: NCI-H460 lung
SF-268 CNS = system: SF-268 CNS
A498 renal = system: A498 renal
CCRF-CEM leukemia = system: CCRF-CEM leukemia
HCT-15 colon = system: HCT-15 colon
U251 CNS = system: U251 CNS
ACHN renal = system: ACHN renal
UACC-62 melanoma = system: UACC-62 melanoma
PC-3 prostate = system: PC-3 prostate
NCI-H226 lung = system: NCI-H226 lung
CAKI-1 renal = system: CAKI-1 renal
SNB-19 CNS = system: SNB-19 CNS
786-0 renal = system: 786-0 renal
SNB-75 CNS = system: SNB-75 CNS
NCI-H23 lung = system: NCI-H23 lung
TK-10 renal = system: TK-10 renal
UACC-257 melanoma = system: UACC-257 melanoma
MOLT-4 leukemia = system: MOLT-4 leukemia
UO-31 renal = system: UO-31 renal
SW-620 colon = system: SW-620 colon
SN12C renal = system: SN12C renal
NCI-H522 lung = system: NCI-H522 lung
LOX IMVI melanoma = system: LOX IMVI melanoma
SF-539 CNS = system: SF-539 CNS
OVCAR-8 ovarian = system: OVCAR-8 ovarian
SF-295 CNS = system: SF-295 CNS
T-47D breast = system: T-47D breast
M14 melanoma = system: M14 melanoma
BT-549 breast = system: BT-549 breast
A549 NSCLC = system: A549 NSCLC
K-562 leukemia = system: K-562 leukemia
HCC-2998 colon = system: HCC-2998 colon
HT29 colon = system: HT29 colon
KM12 colon = system: KM12 colon
RPMI-8226 leukemia = system: RPMI-8226 leukemia
HOP-62 NSCLC = system: HOP-62 NSCLC
MALME-3M melanoma = system: MALME-3M melanoma
DU-145 prostate = system: DU-145 prostate
SR leukemia = system: SR leukemia
HCT-116 colon = system: HCT-116 colon

Cc1c2oc3c(C)cc(F)c(C(=O)NC4C(=O)NC(C(C)C)C(=O)N5CCCC5C(=O)N(C)CC(=O)N(C)C(C(C)C)C(=O)OC4C)c3nc-2c(C(=O)NC2C(=O)NC(C(C)C)C(=O)N3CCCC3C(=O)N(C)CC(=O)N(C)C(C(C)C)C(=O)OC2C)c(N)c1=O (stereo unspecified)
0.663 µM: TGI (SK-MEL-2 melanoma)
0.00545 µM: TGI (MOLT-4 leukemia)
0.0385 µM and 0.309 µM: TGI (CCRF-CEM leukemia)
78.5 µM: TGI (786-0 renal)
2.32 µM and 4.16 µM: TGI (SF-295 CNS)
0.223 µM: TGI (SK-MEL-5 melanoma)
21.1 µM: TGI (SNB-19 CNS)
46.8 µM: TGI (EKVX NSCLC)
32.5 µM: TGI (ACHN renal)
1.31 µM and 0.988 µM: TGI (SK-MEL-28 melanoma)
1.66 µM and 1.95 µM: TGI (NCI-H522 lung)
0.887 µM: TGI (HOP-92 NSCLC)
0.625 µM and 0.346 µM: TGI (NCI-H226 lung)
1.41 µM and 0.727 µM: TGI (SF-539 CNS)
60.6 µM: TGI (MCF7 breast)
0.161 µM: TGI (HL-60(TB) leukemia)
3.77 µM: TGI (SW-620 colon)
3.73 µM: TGI (CAKI-1 renal)
25.9 µM: TGI (U251 CNS)
4.68 µM: TGI (PC-3 prostate)
1.42 µM and 1.19 µM: TGI (MDA-MB-435)
0.159 µM: TGI (LOX IMVI melanoma)
1.9 µM and 1.75 µM: TGI (SNB-75 CNS)
4.21 µM and 15.3 µM: TGI (SF-268 CNS)
0.902 µM: TGI (A498 renal)
4.65 µM: TGI (UO-31 renal)
10.2 µM: TGI (OVCAR-5 ovarian)
13.5 µM: TGI (NCI-H460 lung)
91 µM: TGI (NCI/ADR-RES ovarian)
0.897 µM and 6.26 µM: TGI (NCI-H23 lung)
0.391 µM: TGI (RXF 393 renal)
active: GI50 (OVCAR-5 ovarian) 0.0688 µM | GI50 (MDA-MB-231 breast) 0.0186 µM | GI50 (OVCAR-3 ovarian) 0.171 µM | GI50 (HCT-15 colon) 0.42 µM | GI50 (SNB-75 CNS) 0.121 µM | GI50 (UACC-257 melanoma) 0.0732 µM | GI50 (OVCAR-8 ovarian) 0.142 µM
6.8 µM and 2.45 µM: TGI (MDA-MB-231 breast)
inactive: GI50 (EKVX NSCLC) 0.767 µM | GI50 (NCI/ADR-RES ovarian) 5.62 µM | GI50 (HS 578T breast) 0.5 µM | GI50 (OVCAR-4 ovarian) 0.559 µM | GI50 (A498 renal) 0.85 µM | GI50 (TK-10 renal) 1.07 µM | GI50 (UO-31 renal) 0.458 µM
0.286 µM and 0.354 µM: TGI (COLO 205 colon)
1.32 µM and 1.12 µM: TGI (MDA-N)
0.492 µM and 0.154 µM: TGI (UACC-62 melanoma)
> 100 µM: TGI (IGROV1 ovarian) | TGI (HS 578T breast) | TGI (OVCAR-4 ovarian) | TGI (SK-OV-3 ovarian) | TGI (HCT-15 colon) | TGI (SN12C renal)

CNC(=O)c1cc(Oc2ccc3nc(N[C@@H]4CCCC[C@H]4O)sc3c2)ccn1
> 100 µM: TGI (OVCAR-5 ovarian) | TGI (RXF 393 renal) | TGI (T-47D breast) | TGI (M14 melanoma) | TGI (COLO 205 colon) | TGI (MCF7 breast) | TGI (IGROV1 ovarian) | TGI (BT-549 breast) | TGI (SK-MEL-2 melanoma) | TGI (A549 NSCLC) | TGI (EKVX NSCLC) | TGI (MDA-MB-435) | TGI (NCI/ADR-RES ovarian) | TGI (HS 578T breast) | TGI (K-562 leukemia) | TGI (MDA-MB-231 breast) | TGI (HL-60(TB) leukemia) | TGI (OVCAR-4 ovarian) | TGI (HCC-2998 colon) | TGI (SK-MEL-28 melanoma) | TGI (HOP-92 NSCLC) | TGI (SK-OV-3 ovarian) | TGI (OVCAR-3 ovarian) | TGI (NCI-H460 lung) | TGI (SF-268 CNS) | TGI (A498 renal) | TGI (CCRF-CEM leukemia) | TGI (HCT-15 colon) | TGI (U251 CNS) | TGI (ACHN renal) | TGI (UACC-62 melanoma) | TGI (PC-3 prostate) | TGI (HT29 colon) | TGI (NCI-H226 lung) | TGI (KM12 colon) | TGI (CAKI-1 renal) | TGI (SNB-19 CNS) | TGI (786-0 renal) | TGI (SNB-75 CNS) | TGI (RPMI-8226 leukemia) | TGI (NCI-H23 lung) | TGI (TK-10 renal) | TGI (UACC-257 melanoma) | TGI (HOP-62 NSCLC) | TGI (DU-145 prostate) | TGI (MOLT-4 leukemia) | TGI (UO-31 renal) | TGI (SR leukemia) | TGI (SW-620 colon) | TGI (SN12C renal) | TGI (NCI-H522 lung) | TGI (LOX IMVI melanoma) | TGI (SF-539 CNS) | TGI (OVCAR-8 ovarian) | TGI (HCT-116 colon) | TGI (SF-295 CNS)
inactive: GI50 (OVCAR-5 ovarian) > 100 µM | GI50 (RXF 393 renal) > 100 µM | GI50 (T-47D breast) 21.1 µM | GI50 (M14 melanoma) 36.7 µM | GI50 (COLO 205 colon) 59.8 µM | GI50 (MCF7 breast) 36.6 µM | GI50 (IGROV1 ovarian) > 77.2 µM | GI50 (BT-549 breast) 31.8 µM | GI50 (SK-MEL-2 melanoma) > 87.8 µM | GI50 (A549 NSCLC) 62.5 µM | GI50 (EKVX NSCLC) 38.2 µM | GI50 (MDA-MB-435) 32.6 µM | GI50 (NCI/ADR-RES ovarian) 49.2 µM | GI50 (HS 578T breast) > 69.9 µM | GI50 (K-562 leukemia) 43.7 µM | GI50 (MDA-MB-231 breast) 82.2 µM | GI50 (HL-60(TB) leukemia) 62.5 µM | GI50 (SK-MEL-5 melanoma) 18.1 µM | GI50 (OVCAR-4 ovarian) 31.2 µM | GI50 (HCC-2998 colon) > 100 µM | GI50 (SK-MEL-28 melanoma) 63.3 µM | GI50 (HOP-92 NSCLC) 31.9 µM | GI50 (SK-OV-3 ovarian) > 100 µM | GI50 (OVCAR-3 ovarian) 45.2 µM | GI50 (NCI-H460 lung) 53.4 µM | GI50 (SF-268 CNS) 68 µM | GI50 (A498 renal) > 40.5 µM | GI50 (CCRF-CEM leukemia) 43.1 µM | GI50 (HCT-15 colon) 38.1 µM | GI50 (U251 CNS) 50.1 µM | GI50 (ACHN renal) 55.8 µM | GI50 (UACC-62 melanoma) 49.9 µM | GI50 (PC-3 prostate) 33.7 µM | GI50 (HT29 colon) 97.8 µM | GI50 (NCI-H226 lung) 61.9 µM | GI50 (KM12 colon) 66.3 µM | GI50 (CAKI-1 renal) 44.9 µM | GI50 (SNB-19 CNS) > 100 µM | GI50 (786-0 renal) > 90.9 µM | GI50 (SNB-75 CNS) 31.3 µM | GI50 (RPMI-8226 leukemia) > 54.1 µM | GI50 (NCI-H23 lung) 59.3 µM | GI50 (TK-10 renal) > 100 µM | GI50 (UACC-257 melanoma) 37.2 µM | GI50 (HOP-62 NSCLC) > 67.3 µM | GI50 (MALME-3M melanoma) 28.6 µM | GI50 (DU-145 prostate) 71.8 µM | GI50 (MOLT-4 leukemia) 32.8 µM | GI50 (UO-31 renal) 33.5 µM | GI50 (SR leukemia) 40 µM | GI50 (SW-620 colon) > 100 µM | GI50 (SN12C renal) > 100 µM | GI50 (NCI-H522 lung) > 76.7 µM | GI50 (LOX IMVI melanoma) 58.4 µM | GI50 (SF-539 CNS) 36.3 µM | GI50 (OVCAR-8 ovarian) 69.4 µM | GI50 (HCT-116 colon) 49.1 µM | GI50 (SF-295 CNS) 31.6 µM
99.2 µM: TGI (MALME-3M melanoma)
38.1 µM: TGI (SK-MEL-5 melanoma)
